{"source": "patent US20220064604A1", "about": "“SYSTEMIC SCLEROSIS DISEASE MODEL AND USE THEREOF” (YiPSCELL Inc., priority 2018, published 2022)", "key": {"[1]": {"system": "fibroblasts derived from the induced pluripotent stem cells", "assay": "Cell proliferation of iPSC-derived fibroblasts, Cell Counting Kit-8 (FDA-approved drug screening)", "format": "cell-based, human", "conditions": "absorbance at 450 nm", "description": "For cell proliferation, absorbance was measured at 450 nm by using the Cell Counting Kit-8 (Dojindo).\nThe plated cells were treated with about 800 FDA-approved drugs to screen for drugs that reduce the proliferation (FIG. 6A). For cell proliferation, absorbance was measured at 450 nm by using the Cell Counting Kit-8 (Dojindo) (FIG. 6B)."}, "total collagen in iPSC-F": {"system": "total collagen in iPSC-F", "assay": "Total collagen expression, hydroxyproline assay, in iPSC-derived fibroblasts", "format": "cell-based, human", "conditions": "for expression of the total collagen: 5 μM, SSc patient iPSC-derived fibroblasts, vs untreated", "description": "(§1) The cells or cell culture media were harvested, mixed with hydrochloric acid at a ratio of 1:1, and cultured at 120° C. for 3 hours. After culture, 5 mg of activated charcoal was added, followed by centrifugation at 13,000×g for 5 minutes to separate only the supernatant. The harvested supernatant was transferred to a 96-well plate and dried completely at 60° C. The Chloramine T/Oxidation Buffer mixture was added to the well, and it was cultured for 5 minutes at room temperature. After adding the diluted DMAB Reagent and incubating at 60° C. for 90 minutes, absorbance at 560 nm was measured.\nas §1, with “For collagen expression, the hydroxyproline assay kit (Sigma) was used. The cells” for “The cells”, “1:1, and incubated at 120°” for “1:1, and cultured at 120°”, “hours. After incubation, 5 mg” for “hours. After culture, 5 mg”, “it was incubated for 5” for “it was cultured for 5”\nFor collagen expression, the hydroxyproline assay kit (Sigma) was used. The cells or cell culture media were harvested, mixed with hydrochloric acid at a ratio of 1:1, and incubated at 120° C. for 3 hours. After incubation, 5 mg of activated charcoal was added, followed by centrifugation at 13,000×g for 5 minutes to separate only the supernatant. […] After adding the diluted DMAB Reagent and incubating at 60° C. for 90 minutes, absorbance at 560 nm was measured.\nAfter 1 day, pirfenidone and nintedanib, which are drugs approved as anti-fibrotic drugs, were treated at a concentration of 5 μM. Collagen expression was measured using the hydroxyproline assay kit (Sigma). […] After adding the diluted DMAB Reagent and incubating at 60° C. for 90 minutes, absorbance was measured at 560 nm to measure the total amount of collagen."}, "ACTA2 and COL1A1": {"system": "ACTA2 and COL1A1", "assay": "Fibrosis marker gene expression (qRT-PCR) in SSc iPSC-derived fibroblasts", "format": "cell-based, human", "conditions": "5 μM; SSc patient iPSC-derived fibroblasts; vs untreated", "description": "In order to verify the fibrosis model of the fibroblasts derived from the induced pluripotent stem cells of patients with systemic sclerosis formed in Example 3 above, 2.5×10^5 fibroblasts were plated on a 6-well plate, and maintained and expanded for 1 day. One day later, pirfenidone and nintedanib were treated at a concentration of 5 μM. The total RNA was extracted using Trizol, and cDNA was synthesized using the Revert Aid™ First Strand cDNA Synthesis kit. The qRT-PCR was performed on the synthesized cDNA using LightCycle 480 SYBR Green. The primers used are presented in [Table 3]. All of the experiments were repeated 3 times, and the threshold of the average cycle was used to calculate gene expression for averaging GAPDH as an internal control."}, "α-SMA": {"system": "α-SMA", "assay": "α-SMA expression by western blot in iPSC-derived fibroblasts", "format": "cell-based, human", "description": "In order to verify the antifibrotic effect of dactinomycin and raloxifene, which are the drugs selected through the above experiment, 1×10^6 fibroblasts were plated on a 100 mm culture dish, treated with the target drugs, and maintained and expanded. The protein was extracted using the RIPA buffer (Sigma) to analyze the expression of fibrosis factors, and the protein concentration was quantified by the Bradford assay. The same concentration of the protein was loaded on 10% SDS-PAGE, and the protein was transferred to polyvinylidene difluoride membranes. […] After washing with PBS containing 0.1% Tween-20, the peroxidase-linked IgG secondary antibody was incubated, and protein expression was measured using the ECL kit.\nIn order to confirm the reduction effect of the expression of the fibrosis factors of raloxifene, which is the drug selected in Example 6, raloxifene was treated by concentration, and the expression of α-SMA was confirmed. […] The protein was extracted using the RIPA buffer (Sigma) to analyze the expression of fibrosis factors, and the protein concentration was quantified by the Bradford assay. […] After washing with PBS containing 0.1% Tween-20, the peroxidase-linked IgG secondary antibody was incubated, and protein expression was measured using the ECL kit."}, "iPSC-F": {"system": "iPSC-F", "assay": "Wound healing assay in iPSC-F with TGF-b induced fibrosis", "format": "cell-based, human", "description": "The fibroblasts were plated on a 6-well plate and maintained and expanded. When the cells filled the plate, the plate was scratched, and fibrosis was induced by TGF-b and it was treated with the drug raloxifene."}, "3D fibroblast layer": {"system": "3D fibroblast layer", "assay": "Thickness of 3D fibroblast layer with TGF-b induced fibrosis", "format": "cell-based, human", "text": "A 3D fibroblast layer was produced using the fibroblasts formed in Example 3 above. 2×10^5 fibroblasts after 28 days of differentiation were harvested and mixed with collagen 1 and plated on a 6-well-sized Transwell plate. It was replaced once every 2 days with Fibroblast Differentiation Culture Medium 1 for 5 days (FIG. 5F).\nIn order to confirm the effect of reducing the skin thickness by raloxifene, which is the drug selected in Example 6 above, fibrosis was induced in the 3D fibroblast layer with TGF-b, and it was treated with the drug raloxifene."}, "[2]": {"system": "COL1A1, COL3A1, and ACTA2", "assay": "Fibrosis factor gene expression (qRT-PCR) in skin tissue of bleomycin model", "format": "in vivo, mouse", "conditions": "subcutaneous for 21 days", "description": "(§2) A systemic sclerosis model was established by dissolving Bleocin (Dong-A ST, 15 mg) in PBS and injecting it daily into the nape of mice. Raloxifene and bazedoxifene were injected subcutaneously for 21 days from 3 days after the injection of Bleocin (FIG. 8A).\nECM gene expression was confirmed to verify the antifibrotic efficacy of raloxifene in the bleomycin model established in Example 8-1 above. After harvesting the skin tissue, the total RNA was extracted using Trizol, and cDNA was synthesized using the Revert Aid™ First Strand cDNA Synthesis kit. The qRT-PCR was performed on the synthesized cDNA using LightCycle 480 SYBR Green. The primers used are presented in [Table 4]. All of the experiments were repeated three times, and the threshold of the average cycle was used to calculate gene expression for averaging GAPDH as an internal control."}, "bleomycin mouse model [3]": {"system": "bleomycin mouse model", "assay": "Thickness of skin tissue in bleomycin model (histology)", "format": "in vivo", "description": "as §2\nIn order to verify the antifibrotic efficacy of raloxifene in the bleomycin model established in Example 8-1 above, the skin tissue was harvested and paraffin blocks were prepared. The harvested skin tissue was fixed in 4% formaldehyde. The tissue was maintained in the running water for a day to remove the remaining fixative. Dehydration was carried out sequentially while increasing the concentration of an ethanol solution. After dehydration, a transparent process was performed with xylene, followed by paraffin penetration. The next day, the tissue was fixed to a paraffin block, and a tissue section was obtained using a microtome. The slide was dried at 60° C. for 1 hour. After the slide was deparaffinized with xylene, it was rehydrated while decreasing the concentration of the ethanol solution and washed with tap water, and staining was performed.\nFor hematoxylin and eosin (H&E) staining, sections were incubated in the Harris hematoxylin solution for 10 minutes. The slide was washed, decolorized in an ethanol solution containing 1% HCl, and then neutralized in 0.2% ammonia water. […]"}, "bleomycin mouse model [4]": {"system": "bleomycin mouse model", "assay": "Pulmonary fibrosis in bleomycin model (Masson Trichrome staining)", "format": "in vivo", "quoted_text": "A systemic sclerosis model was established by dissolving Bleocin (Dong-A ST, 15 mg) in PBS and injecting it daily into the nape of mice. Raloxifene and bazedoxifene were injected subcutaneously for 21 days from 3 days after the injection of Bleocin (FIG. 8A). […] For Masson Trichrome staining, the slide was mordated overnight in the Bouin solution. After washing the slide, nuclei were stained for 10 minutes with Weigert Iron Hematoxylin. The cytoplasm was stained for 5 minutes with Biebrich scarlet-acid fuchsin. It was decolorized for 10 minutes with a solution in which phosphotungstic acid, phosphomolybdic acid, and DW were mixed at a ratio of 1:1:2. The collagenic fiber was stained by maintaining in a 2% aniline blue solution for 5 minutes. The slide was washed and subjected to a dehydration process while increasing the concentration of ethanol. The remaining ethanol was removed with xylene, and it was sealed using the VectaMount Permanent Mounting Medium."}, "[5]": {"conditions": "raloxifene treated by concentration"}}, "note": "Starred links: 1 amine or outer side, 2 acyl side, 3 side chain; linkers in the order of their positions; H or OH if unused. Positions of bridges follow the written chain, without caps; N, C: chain ends. Non-standard residues stand in square brackets, D forms with d. Residues, ends and D or L forms follow the SMILES beside them. Chains are numbered I, II in the order given. Actinocin(9to1) = Cc1c2oc3c(C)ccc(C(=O)[*:1])c3nc-2c(C(=O)[*:2])c(N)c1=O; NMeV = CN[C@H](C(=O)O)C(C)C; Sar = CNCC(=O)O"}
{"compound": "Cc1c2oc3c(C)ccc(C(=O)N[C@@H]4C(=O)N[C@H](C(C)C)C(=O)N5CCC[C@H]5C(=O)N(C)CC(=O)N(C)[C@@H](C(C)C)C(=O)O[C@@H]4C)c3nc-2c(C(=O)N[C@@H]2C(=O)N[C@H](C(C)C)C(=O)N3CCC[C@H]3C(=O)N(C)CC(=O)N(C)[C@@H](C(C)C)C(=O)O[C@@H]2C)c(N)c1=O", "note": "[dactinomycin] (I: T[dV]P[Sar][NMeV] / II: T[dV]P[Sar][NMeV]; ester I:1-I:C, II:1-II:C; linker I:N-II:N via Actinocin(9to1))", "values": [{"measurement": "cell proliferation", "setting": "[1]", "result": "decreased"}]}
{"compound": "COC(=O)c1ccc2c(c1)NC(=O)/C2=C(\\Nc1ccc(N(C)C(=O)CN2CCN(C)CC2)cc1)c1ccccc1", "note": "[nintedanib]", "values": [{"measurement": "expression of the total collagen", "setting": "total collagen in iPSC-F", "result": "significantly reduced"}, {"measurement": "gene expression of ACTA2", "setting": "ACTA2 and COL1A1", "result": "significantly reduced"}, {"measurement": "gene expression of COL1A1", "setting": "ACTA2 and COL1A1", "result": "significantly reduced"}]}
{"compound": "Cc1ccc(=O)n(-c2ccccc2)c1", "note": "[pirfenidone]", "values": [{"measurement": "expression of the total collagen", "setting": "total collagen in iPSC-F", "result": "significantly reduced"}, {"measurement": "gene expression of ACTA2", "setting": "ACTA2 and COL1A1", "result": "significantly reduced"}, {"measurement": "gene expression of COL1A1", "setting": "ACTA2 and COL1A1", "result": "significantly reduced"}]}
{"compound": "O=C(c1ccc(OCCN2CCCCC2)cc1)c1c(-c2ccc(O)cc2)sc2cc(O)ccc12", "note": "[raloxifene]", "values": [{"measurement": "cell proliferation", "setting": "[1]", "result": "decreased"}, {"measurement": "expression of the total collagen, treated by concentration", "setting": "total collagen in iPSC-F; [5]", "result": "reduced as the treatment concentration of raloxifene was increased"}, {"measurement": "expression of α-SMA", "setting": "α-SMA; iPSC-F of patients with systemic sclerosis", "result": "effectively decreased the expression of α-SMA compared to dactinomycin"}, {"measurement": "expression of α-SMA, treated by concentration", "setting": "α-SMA; [5]", "result": "reduced as the treatment concentration of raloxifene was increased"}, {"measurement": "wound healing, which was increased by TGF-b", "setting": "iPSC-F; wound healing assay in iPSC-F", "result": "reduced"}, {"measurement": "proliferation of the cells, which was increased by TGF-b", "setting": "iPSC-F; wound healing experiment, TGF-b induced", "result": "reduced"}, {"measurement": "thickness of the 3D fibroblast layer, which was increased by TGF-b", "setting": "3D fibroblast layer", "result": "reduced"}, {"measurement": "expression of ACTA2", "setting": "[2]", "result": "reduced"}, {"measurement": "expression of COL1A1", "setting": "[2]", "result": "reduced"}, {"measurement": "expression of COL3A1", "setting": "[2]", "result": "reduced"}, {"measurement": "thickness of the skin tissue", "setting": "bleomycin mouse model [3]", "result": "reduced"}, {"measurement": "lung fibrosis", "setting": "bleomycin mouse model [4]", "result": "reduced"}]}
